According to the supplement of paper PMC10307832:

Tests used:
Assay in all cases: relative viability (nuclei count vs DMSO), 5 days (fraction); higher = more cells survive
[1] = tested on: PC-3 [JPC-3]
Outline: (§1)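 Relative viability divides the nuclei count in treated wells by that in vehicle wells. Lung cancer cell lines were seeded in 1536-well plates, dosed by pin tool the next day, and fixed and stained after 5 days in one step with final 0.05% Triton X-100, 1% formaldehyde and 1 ug/ml Hoechst. Dosing was a single drug or a fixed anchor-drug dose plus five library-drug doses (not always all listed) in √10 steps, and values are medians of duplicate plates imaged at 4×.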

[2] = tested on: NCI-H1915
Outline: as §1

[3] = tested on: NCI-H661
Outline: as §1

[4] = tested on: 201T
Outline: as §1

[5] = tested on: CAL-12T
Outline: as §1

[6] = tested on: NCI-H2087
Outline: as §1

[7] = tested on: NCI-H2023
Outline: as §1

[8] = tested on: NCI-H1792
Outline: as §1

[9] = tested on: NCI-H650
Outline: as §1

[10] = tested on: BEN
Outline: as §1

[11] = tested on: LCLC-97TM1
Outline: as §1

[12] = tested on: NCI-H727
Outline: as §1

[13] = tested on: NCI-H520
Outline: as §1

[14] = tested on: H3255
Outline: as §1

[15] = tested on: ABC-1
Outline: as §1

[16] = tested on: NCI-H1944
Outline: as §1

[17] = tested on: NCI-H460
Outline: as §1

[18] = tested on: A-427
Outline: as §1

[19] = tested on: NCI-H1651
Outline: as §1

[20] = tested on: NCI-H596
Outline: as §1

[21] = tested on: NCI-H441
Outline: as §1

[22] = tested on: LC-2-ad
Outline: as §1

`NC(=O)Nc1cc(-c2cccc(F)c2)sc1C(=O)N[C@H]1CCCNC1` [AZD7762] + C[C@]1(O)C[C@@H](c2nc(-c3ccc4ccc(-c5ccccc5)nc4c3)c3c(N)nccn32)C1 [Linsitinib] (partner 1 µM) was tested, and the relative viability ([1]; first compound 0.01 µM) was 0.929, the relative viability ([1]; first compound 0.03162 µM) was 0.966 and the relative viability ([1]; first compound 0.1 µM) was 0.999. It also gave a relative viability ([1]; first compound 0.3162 µM) of 0.987, a relative viability ([1]; first compound 1 µM) of 0.927 and a relative viability ([2]; first compound 0.01 µM) of 1.09. For the same compound, the relative viability ([2]; first compound 0.03162 µM) was 1.1, the relative viability ([2]; first compound 0.1 µM) was 1.19 and the relative viability ([2]; first compound 0.3162 µM) was 1.2. The relative viability ([2]; first compound 1 µM) was 1.06, the relative viability ([3]; first compound 0.01 µM) was 0.681 and the relative viability ([3]; first compound 0.03162 µM) was 0.546. For the same compound, the relative viability ([3]; first compound 0.1 µM) was 0.444, the relative viability ([3]; first compound 0.3162 µM) was 0.501 and the relative viability ([3]; first compound 1 µM) was 0.293. It also gave a relative viability ([4]; first compound 0.01 µM) of 1.04, a relative viability ([4]; first compound 0.03162 µM) of 1.06 and a relative viability ([4]; first compound 0.1 µM) of 1.1. The relative viability ([4]; first compound 0.3162 µM) was 1.09, the relative viability ([4]; first compound 1 µM) was 0.969 and the relative viability ([5]; first compound 0.01 µM) was 0.91. It also gave a relative viability ([5]; first compound 0.03162 µM) of 0.725, a relative viability ([5]; first compound 0.1 µM) of 0.984 and a relative viability ([5]; first compound 0.3162 µM) of 0.844. For the same compound, the relative viability ([5]; first compound 1 µM) was 0.288, the relative viability ([6]; first compound 0.01 µM) was 0.995 and the relative viability ([6]; first compound 0.03162 µM) was 0.986. The relative viability ([6]; first compound 0.1 µM) was 1.07, the relative viability ([6]; first compound 0.3162 µM) was 1.03 and the relative viability ([6]; first compound 1 µM) was 1.17. It also gave a relative viability ([7]; first compound 0.01 µM) of 0.619, a relative viability ([7]; first compound 0.03162 µM) of 0.485 and a relative viability ([7]; first compound 0.1 µM) of 0.387. It also gave a relative viability ([7]; first compound 0.3162 µM) of 0.21, a relative viability ([7]; first compound 1 µM) of 0.0864 and a relative viability ([8]; first compound 0.01 µM) of 0.604. The relative viability ([8]; first compound 0.03162 µM) was 0.588, the relative viability ([8]; first compound 0.1 µM) was 0.624 and the relative viability ([8]; first compound 0.3162 µM) was 0.599. The relative viability ([8]; first compound 1 µM) was 0.707, the relative viability ([9]; first compound 0.01 µM) was 1.01 and the relative viability ([9]; first compound 0.03162 µM) was 0.984. The relative viability ([9]; first compound 0.1 µM) was 0.842, the relative viability ([9]; first compound 0.3162 µM) was 0.843 and the relative viability ([9]; first compound 1 µM) was 0.811. For the same compound, the relative viability ([10]; first compound 0.01 µM) was 1.04, the relative viability ([10]; first compound 0.03162 µM) was 0.892 and the relative viability ([10]; first compound 0.1 µM) was 0.797. It also gave a relative viability ([10]; first compound 0.3162 µM) of 0.829, a relative viability ([10]; first compound 1 µM) of 0.643 and a relative viability ([11]; first compound 0.01 µM) of 0.179. It also gave a relative viability ([11]; first compound 0.03162 µM) of 0.209, a relative viability ([11]; first compound 0.1 µM) of 0.214 and a relative viability ([11]; first compound 0.3162 µM) of 0.26. For the same compound, the relative viability ([11]; first compound 1 µM) was 0.189, the relative viability ([12]; first compound 0.01 µM) was 0.282 and the relative viability ([12]; first compound 0.03162 µM) was 0.333. The relative viability ([12]; first compound 0.1 µM) was 0.311, the relative viability ([12]; first compound 0.3162 µM) was 0.219 and the relative viability ([12]; first compound 1 µM) was 0.118. For the same compound, the relative viability ([13]; first compound 0.01 µM) was 1.16, the relative viability ([13]; first compound 0.03162 µM) was 0.893 and the relative viability ([13]; first compound 0.1 µM) was 0.848. The relative viability ([13]; first compound 0.3162 µM) was 0.551, the relative viability ([13]; first compound 1 µM) was 0.389 and the relative viability ([14]; first compound 0.01 µM) was 0.931. It also gave a relative viability ([14]; first compound 0.03162 µM) of 1.04, a relative viability ([14]; first compound 0.1 µM) of 0.969 and a relative viability ([14]; first compound 0.3162 µM) of 0.947. The relative viability ([14]; first compound 1 µM) was 0.817, the relative viability ([15]; first compound 0.01 µM) was 1.08 and the relative viability ([15]; first compound 0.03162 µM) was 0.839. The relative viability ([15]; first compound 0.1 µM) was 0.925, the relative viability ([15]; first compound 0.3162 µM) was 0.409 and the relative viability ([15]; first compound 1 µM) was 0.278. It also gave a relative viability ([16]; first compound 0.01 µM) of 1.19, a relative viability ([16]; first compound 0.03162 µM) of 1.26 and a relative viability ([16]; first compound 0.1 µM) of 1.35. For the same compound, the relative viability ([16]; first compound 0.3162 µM) was 1.25, the relative viability ([16]; first compound 1 µM) was 1.14 and the relative viability ([17]; first compound 0.01 µM) was 0.975. It also gave a relative viability ([17]; first compound 0.03162 µM) of 0.727, a relative viability ([17]; first compound 0.1 µM) of 0.719 and a relative viability ([17]; first compound 0.3162 µM) of 0.135. For the same compound, the relative viability ([17]; first compound 1 µM) was 0.0126, the relative viability ([18]; first compound 0.01 µM) was 1.13 and the relative viability ([18]; first compound 0.03162 µM) was 1.18. The relative viability ([18]; first compound 0.1 µM) was 1.22, the relative viability ([18]; first compound 0.3162 µM) was 1.13 and the relative viability ([18]; first compound 1 µM) was 0.976. The relative viability ([19]; first compound 0.01 µM) was 1.03, the relative viability ([19]; first compound 0.03162 µM) was 0.904 and the relative viability ([19]; first compound 0.1 µM) was 0.902. It also gave a relative viability ([19]; first compound 0.3162 µM) of 0.702, a relative viability ([19]; first compound 1 µM) of 0.358 and a relative viability ([20]; first compound 0.01 µM) of 1.04. The relative viability ([20]; first compound 0.03162 µM) was 1.04, the relative viability ([20]; first compound 0.1 µM) was 1.03 and the relative viability ([20]; first compound 0.3162 µM) was 1.1. For the same compound, the relative viability ([20]; first compound 1 µM) was 0.923, the relative viability ([21]; first compound 0.01 µM) was 0.656 and the relative viability ([21]; first compound 0.03162 µM) was 0.744. For the same compound, the relative viability ([21]; first compound 0.1 µM) was 0.657, the relative viability ([21]; first compound 0.3162 µM) was 0.823 and the relative viability ([21]; first compound 1 µM) was 0.67. It also gave a relative viability ([22]; first compound 0.01 µM) of 0.854, a relative viability ([22]; first compound 0.03162 µM) of 0.929 and a relative viability ([22]; first compound 0.1 µM) of 0.787. The relative viability ([22]; first compound 0.3162 µM) was 0.674 and the relative viability ([22]; first compound 1 µM) was 0.437.
